Experiment [1] concerns wild type (Col-0), eva1, ipms1-4 and ipms1-5 seedlings. The experiment in a line: Primary root elongation of seedlings germinated and grown on medium containing chemical inhibitors (chronic treatment). In kind it is in vivo, Arabidopsis thaliana. The protocol:
Except for chronical treatments with specified chemicals, Arabidopsis seeds were stratified and grown on medium containing half-strength Linsmaier and Skoog nutrients (½ LS; Caisson Labs, LSP03), 1% sucrose and 0.4% phytagel (Sigma-Aldrich, P8169) in chambers configured with 21° C. and 16-hour light: 8-hour dark cycle.
In another pharmaceutical examination using AZD-8055, wortmannin and Lat B (FIG. 6A-6G, 6L-6Q), wild type (Col-0), eva1, ipms1-4 and ipms1-5 lines germinated and grew on vertically staged Petri dishes containing Arabidopsis growth medium containing specific chemical inhibitors.

Experiment [2] concerns wild type cotyledon epidermal cells expressing GFP-δTIP. In words: Confocal imaging of vacuole morphology after temporal chemical treatment of wild type seedlings. Conditions: 5 μM AZD-8055, 2 or 4 hours.
The subject of experiment [3] is eva1 cotyledon epidermal cells expressing GFP-δTIP. In words: Confocal imaging of vacuole morphology after temporal chemical treatment of eva1 seedlings. It is filed as cell-based, Arabidopsis thaliana.
The subject of experiment [4] is wild type (Col-0), ipms1-4 and ipms1-5 seedlings. The experiment in a line: Root growth after transplant of 10-day old seedlings to Lat B medium. It is filed as in vivo, Arabidopsis thaliana. On the procedure:
To examine the effect of latrunculin B (Lat B) on root elongation (FIG. 6L-6Q), wild type (Col-0), ipms1-4 and ipms1-5 lines germinated and grew on horizontally staged Petri dishes containing Arabidopsis growth medium (½ LS, 1% sucrose and 0.4% phytagel). 10-day old seedlings were transplanted to Petri dishes containing ½ LS, 1% sucrose and 1% Agar (Acumedia, 7558A) medium containing DMSO or 50 nM Lat B or 100 nM Lat B. Photographs were acquired immediately after the transplant and the Petri dishes were vertically staged in a Percival chamber.
Photographs were also acquired 8 days after the transplant.
Experiments were designed to validate this hypothesis by testing the sensitivity of the ipms1 alleles to the F-actin depolymerizing reagent latrunculin B (Lat B) (Cao et al., 2016). The primary root length of 10-day old ipms1-4 and ipms1-5 was approximately 50% of WT (FIG. 4H-4I). Seedlings of all genotypes were then transferred to medium containing DMSO or 50 nM or 100 nM Lat B in DMSO.

Experiment [5] deals with omr1-11^D cotyledon epidermal cells. In words: ER strand phenotype of omr1-11^D after Torin2 treatment. It is filed as cell-based, Arabidopsis thaliana. Conditions: 2-hour Torin2 treatment.
[6] abbreviates: nine-day old seedlings grown on Lat B medium (FIG. 6P-6Q).
[7] abbreviates: 25 μM Lat B, two-hour treatment.

In the case of `COc1ccc(-c2ccc3c(N4CCOC[C@@H]4C)nc(N4CCOC[C@@H]4C)nc3n2)cc1CO` [AZD-8055], the “ipms1 primary root elongation” value in experiment [1] (AZD-8055 higher concentrations (0.4, 0.6 and 1.0 μM), chronic) is listed as “inhibited”; in experiment [1] (AZD-8055 lower concentrations (0.1 and 0.2 μM), chronic), “promoted”. In addition, the “morphology of the central vacuole and trans-vacuolar strands in wild type cells” value in experiment [2] is “did not exhibit significant changes”. Moreover, the “small vacuoles and trans-vacuolar strands in eva1” value in experiment [3] (5 μM AZD-8055, 2 hours) is recorded as “reduced in appearance”. Besides, the “vacuole appearance of eva1 cells” value in experiment [3] (5 μM AZD-8055, 4 hours) was “indistinguishable from wild type”. Also, in experiment [3] (legend prints 5 mM AZD-8055, 2 and 4 hours), the “vacuolar mutant phenotypes of eva1 (FIG. 6A-6F legend)” value was “rescues vacuolar mutant phenotypes of eva1”.
As for `C/C1=C/C(=O)O[C@@H]2C[C@@H](CC[C@H](C)/C=C\CC1)O[C@@](O)([C@@H]1CSC(=O)N1)C2` [Lat B, latrunculin B], the “promotion of root elongation” value in experiment [1] (Lat B treatment, chronic, increasing concentrations) was “not observed”. In addition, in experiment [1] (setting [6]), the “primary root length vs DMSO control, ipms1 mutants” value is reported as “less effects” and the “primary root length vs DMSO control, wild type” value is given as “significant differences”. For the same compound, in experiment [3] (setting [7]), the “small vacuoles in eva1” value is listed as “persisted” and the “trans-vacuolar strands in eva1” value was “disappeared”. Moreover, the “primary root length of ipms1-4 and ipms1-5 compared to WT” value in experiment [4] (50 nM Lat B, 8 days after transplant (DMSO medium: approximately 65%)) worked out at 80%. Besides, in experiment [4] (50 nM or 100 nM Lat B, 8 days after transplant), the “formation of lateral roots in WT seedlings” value was “promoted the formation of lateral roots”. The “primary root length of ipms1-4 and ipms1-5 compared to WT” value in experiment [4] (100 nM Lat B, 8 days after transplant) was “not significantly different from WT”.
As to `Nc1ccc(-c2ccc3ncc4ccc(=O)n(-c5cccc(C(F)(F)F)c5)c4c3c2)cn1` [Torin2, 9-(6-aminopyridin-3-yl)-1-(3-(trifluoromethyl)phenyl) benzo[h][1,6]naphthyridin-2(1H)-one], the “presumably unfused vacuoles and trans-vacuolar strands in eva1” value in experiment [3] (1 μM Torin2, 2 hours) is given as “no longer present”. Besides, the “enhanced ER strands in omr1-11^D” value in experiment [5] was “recovered”.

For the origin of these results see US20230136941A1, “IMPROVING PLANT NUTRITIONAL VALUE AND GROWTH THROUGH ENHANCEMENT OF ESSENTIAL AMINO ACID LEVELS” (Board of Trustees of Michigan State University, priority 2020, published 2023).
